Reference: patent publication EP2338485A1, “Substituted 1,3-dioxoisoindolines as medicine” (Grünenthal GmbH, priority 2009, dated 2011)
Like-named read-outs stand apart in the source and are kept apart here.

System: vGLUT1- bzw. vGLUT2-Transporter
Assay: Glutamate uptake into rat crude synaptic vesicles ([3H]-glutamate uptake)
Format: biochemical, Ratte
Conditions: for VGLUT (Ratte), Hemmung [%]: test concentration not given
Source text: I. Funktionelle Untersuchung an den vGLUT1- bzw. vGLUT2-Transportern
Die agonistische bzw. antagonistische Wirkung der zu untersuchenden Verbindungen am vGLUT1- bzw. vGLUT2-Transporter der Spezies Ratte kann mit folgendem Assay bestimmt werden.
Glutamat-Uptake in Rattenvesikel ('rat crude synaptic vesicles')
Die Präparation von Vesikeln wurde aus Rattengehirn-homogenaten (männlichen Ratten, Stamm Wistar SPF, 150-250 g Gewicht) durchgeführt gemäß Roseth et al. (1995) J. Neurochem. 65: 96-103, der sich auf Whittaker et al. (1964) Biochem J. 90, 293-303 und Fykse und Fonnum (1988) J. Neurochem. 50: 1237-1242 bezieht.
Hierzu wurden frisch entnommene Rattengehirne in 0,32 M Saccharose, 10 mM TRIS-maleat, 1 mM EGTA, pH 7,4 (10 ml/g Frischgewicht) mit einem Potter-Homogenisator (Fa. Braun/Melsungen; 5 Kolbenhübe bei 800 Upm) unter Eiskühlung homogenisiert und anschließend für 10 Minuten bei 3.000 g und 4°C zentrifugiert. Der resultierende Überstand wurde bei 20.000 g für 30 Minuten bei 4°C zentrifugiert. Das entstandene Pellet wurde dann im Verhältnis 1:3 mit 10 mM TRIS-maleate, 0,1 mM EGTA, pH 7,4 osmotisch geschockt und die Suspension bei 17000g für 30 min (4°C) zentrifugiert. Die im Überstand verbliebenen Vesikel wurden nun auf einen Dichtegradienten aus 0,6 M Saccharose in 10 mM TRIS-maleat, 1 mM EGTA, pH 7.4 und 0.4 M Saccharose in 10 mM TRIS-maleat, 1 mM EGTA, pH 7.4 geschichtet. Eine Ultrazentrifugation der Gradienten im Ausschwingrotor bei 65000g für 2h (4°C) schloss sich an. Die Vesikel-Fraktion wurde von der 0.4 M Saccharose-Bande isoliert und im Uptake-Versuch eingesetzt.
Die Substratlösung für den Uptake von [^3H]-Glutamat bestand aus ATP (neutralisiert mit Trisma base; 2 mM im Endansatz), Glutamat (0.5 mM im Endansatz) und ^3H-Glutamat (0.5 µCi im Endansatz). In 14 ml-Reagiergefäßen (Sarstedt, Artikel-Nr.: 798438) wurden jeweils 0,3 ml Gesamtvolumina (n=2/Probe) pipettiert in der folgenden Reihenfolge: 1.) 165 µl Inkubationspuffer (110 mM Kaliumtartrat, 10 mM TRIS-maleat, pH 7,4, 4 mM MgCl2), 2.) 10 µl Testsubstanz oder Vehikelkontrolle oder blank, 3.) 100 µl synaptische Vesikel. Es schloss sich eine Vorinkubation von 15 min bei 30°C an (nur blank-Ansätze befanden sich hierbei auf Eis). Danach wurde der Uptake durch Zugabe von 25 µl der oben beschriebenen Substratlösung gestartet. Die Reaktion wurde nach 5 min durch Zugabe von 7,0 ml eiskalter 150 mM KCI gestoppt. Anschließend wurden die Proben mit Hilfe des Brandel Cell Harvesters Typ M-24R über einen Membranfilter der Porengröße 0,8 µm abgesaugt und zweimal mit eiskalter 150 mM KCI nachgewaschen. Die Messung erfolgte am beta-Counter nach 15 h in 10 ml Szintillatorflüssigkeit (Filter Count).
Die Affinität der Verbindungen der allgemeinen Formel (I) für den vGLUT1- bzw. vGLUT2-Transporter wurde wie vorstehend beschrieben bestimmt (Pharmakologische Methoden)

[1] = compound freshly dissolved from the solid substance, read-out: VGLUT (Ratte), ICso-Fest

Row | SMILES | IC50 [1] | IC50 (read-out: VGLUT (Ratte), IC50) | VGLUT (Ratte), Hemmung [%]
1 | O=C(Nc1ccc(O)cc1C(=O)O)c1ccc(N2C(=O)c3ccc(C(=O)Nc4ccc(O)cc4C(=O)O)cc3C2=O)cc1 [Beispiel 4, 2-(4-(5-(2-Carboxylato-4-hydroxyphenylcarbamoyl)-1,3-dioxoisoindolin-2-yl)-benzamido)-5-hydroxybenzoesäure, Natriumsalz] | 154 nM | – | –
2 | O=C(Nc1ccc(O)cc1C(=O)O)c1ccc(N2C(=O)c3ccc(C(=O)Nc4ccc(O)cc4C(=O)O)cc3C2=O)cc1 [Beispiel 2, 2-(4-(5-(2-Carboxy-4-hydroxyphenylcarbamoyl)-1,3-dioxoisoindolin-2-yl)benzamido)-5-hydroxybenzoesäure] | 32 nM | 94.6 nM | 98%
3 | O=C(O)c1ccccc1N1C(=O)c2ccc(Oc3ccc(Oc4ccc5c(c4)C(=O)N(c4ccccc4C(=O)O)C5=O)cc3)cc2C1=O [Beispiel 1, 2,2'-(5,5'-(1,4-Phenylenbis(oxy))bis(1,3-dioxoisoindolin-5,2-diyl))dibenzoesäure] | – | 3810 nM | 74%
4 | O=C(Nc1ccccc1C(=O)O)c1cccc(N2C(=O)c3ccc(C(=O)Nc4ccccc4C(=O)O)cc3C2=O)c1 [Beispiel 3, 2-(3-(5-(2-Carboxyphenylcarbamoyl)-1,3-dioxoisoindolin-2-yl)benzamido)-benzoesäure] | – | 560 nM | 97%
